Experimental data taken from patent US20140044690A1, “High-Energy Compounds for Use in Alzheimer's and Other Neurodegenerative Diseases” (University Of South Florida, priority 2012, published 2014).

How the values were obtained:
APP α-processing [1] = experiment: APP secretion assay (sAPPα release, Western blotting) in SH-SY5Y cells; type: cell-based, human; conditions: for effect on APP α-processing / APP secretion (in words) / sAPPα release relative to basal line: 2 hours; for effect on APP α-processing / APP secretion (in words): compared with ATP, acetyl-coA, PCr; for sAPPα release relative to basal line: 1 mM each
Protocol: (§1) SH-SY5Y and fibroblast cells were routinely maintained in DMEM supplemented with 10% bovine fetal serum and 100 μg/ml of streptomycine and 100 U/ml of penicillin. For APP secretion assay, the cells were subcultured in the 12-well plate until confluence and then pre-incubated in the serum-free DMEM for 1 hour before the addition of the testing agents. After incubation for 2 hours at 37° C., conditioned medium was collected and cleared by centrifugation. Proteins were precipitated by trichloroacetic acid and processed for gel electrophoresis and Western blotting as described previously (Weidemann et al. 1989; Chen and Fernandez, 2004). A near-infrared dye-conjugated secondary antibody (LI-COR Biosci., NE, USA) was used and visualized with a LI-COR Odyssey Infrared Imaging System.

SH-SY5Y cells = experiment: Cell survival and viability MTT assay / microscopy in SH-SY5Y cells; type: cell-based; conditions: for cell survival, of the untreated control, rotenone-induced death: 2 days, pre-incubation 1 mM each; for cell survival, of the control, H2O2-induced death: 0.6 mM H2O2, by 20 hours, pre-treatment 1 mM each; for cell survival in H2O2-induced death (in words): H2O2 (not shown)
Protocol: SH-SY5Y cells were subcultured in the 12-well plate in DMEM containing 10% fetal bovine serum until 50% confluency. For experiment, the medium was replaced with serum-free DMEM and testing agents were added. The culture was continued in the incubator and parallel samples were taken out at various time intervals for microscopic examination or cell viability assay using an MTT toxicity assay kit (Sigma, Mo.) according to the manufacturer's instructions with modifications (Chen and Fernandez, 2004).

APP α-processing [2] = experiment: APP secretion assay (sAPPα release) in human skin fibroblasts from young and aged donors; type: cell-based; conditions: for sAPPα level, of the control, co-treatment with rotenone: 0.2 μM rotenone two hours; for sAPPα level, of the control, co-treatment with rotenone / sAPPα level, of the control, co-treatment with H2O2: co-treatment 1.5 mM each; for sAPPα release in aged cells, of the young cell level: aged human skin fibroblasts (donor age 81-96), 0.5 mM each, untreated aged cells 42.5%; for sAPPα level, of the control, co-treatment with H2O2: 0.2 mM H2O2 two hours
Protocol: as §1

In the case of `CC(C)(COP(=O)(O)OP(=O)(O)OC[C@H]1O[C@@H](n2cnc3c(N)ncnc32)[C@H](O)[C@@H]1OP(=O)(O)O)[C@@H](O)C(=O)NCCC(=O)NCCS` [CoA, coenzyme A, reference compound], the “effect on APP α-processing / APP secretion (in words)” value (APP α-processing [1]) is reported as “did not show the same effects”.

`CN(CC(=O)O)C(=N)N` [Cr, creatine, reference compound] was tested, and the “effect on APP α-processing / APP secretion (in words)” value (APP α-processing [1]) was “did not show the same effects”.

With `OO` [H2O2, reference compound] the “cell death caused by H2O2 alone” value (SH-SY5Y cells; 0.6 mM H2O2) was “killed all cells by 10 hours” and the “sAPPα release, of the young cell control, H2O2 alone” value (APP α-processing [2]; young fibroblasts, 0.2 mM H2O2, two hours) was 46.1%.

`C=C(OP(=O)(O)O)C(=O)O` [PEP, phosphoenol pyruvate] was tested, and the “cell survival, of the untreated control, rotenone-induced death” value (“cell survival, of the untreated control” for short) (SH-SY5Y cells; 0.2 μM rotenone, MTT) was 53%, the “cell morphology under microscopy, rotenone-induced death” value (SH-SY5Y cells; 0.2 μM rotenone, pre-incubation 1 mM for 30 min) was “substantially preserved the cell shape and the processes” and the “cell survival, of the control, H2O2-induced death” value (from here on “cell survival, of the control”) (SH-SY5Y cells) was 38%. For the same compound, the “sAPPα level, of the control, co-treatment with rotenone” value (APP α-processing [2]; young fibroblasts) was 90.3%.

For `Nc1ncnc2c1ncn2[C@@H]1O[C@H](COP(=O)(O)OP(=O)(O)O)[C@@H](O)[C@H]1O` [ADP, adenosine diphosphate, reference compound], the “effect on APP α-processing / APP secretion (in words)” value (APP α-processing [1]) was “did not show the same effects”.

With `Nc1ncnc2c1ncn2[C@@H]1O[C@H](COP(=O)(O)OP(=O)(O)OP(=O)(O)O)[C@@H](O)[C@H]1O` [ATP, adenosine triphosphate] the “cell survival, of the untreated control” value (SH-SY5Y cells; 0.2 μM rotenone, MTT) was 15%, the “cell survival in H2O2-induced death (in words)” value (SH-SY5Y cells) was “moderately increased cell survival” and the “sAPPα release in aged cells, of the young cell level” value (APP α-processing [2]) was 82.3%. For the same compound, the “sAPPα level, of the control, co-treatment with rotenone” value (APP α-processing [2]; young fibroblasts) was 79.2%, the “sAPPα level, of the control, co-treatment with H2O2” value (APP α-processing [2]; young fibroblasts) was 89.3% and the “sAPPα release relative to basal line” value (APP α-processing [1]) was 3.3 fold. The EC50 (APP α-processing [1]; Homo sapiens, read-out: EC50 for promoting sAPPα release) was 480 µM, the “stimulatory effect on sAPPα release in the presence of NaN3” value (APP α-processing [1]; NaN3 25 mM pre-incubated 15 minutes) was “completely abolished” and the “stimulatory effect on sAPPα release in the presence of rotenone” value (APP α-processing [1]; rotenone 20 μM pre-incubated 15 minutes) was “completely abolished”.

`CN(CC(=O)O)C(=N)NP(=O)(O)O` [PCr, phosphocreatine] was tested, and the “cell survival, of the untreated control” value (SH-SY5Y cells; 0.2 μM rotenone, MTT) was 42%, the “cell survival, of the control” value (SH-SY5Y cells) was 49% and the “sAPPα release in aged cells, of the young cell level” value (APP α-processing [2]) was 79.6%. The “sAPPα release relative to basal line” value (APP α-processing [1]) was 4.2 fold.

With `Nc1nc2c(ncn2[C@@H]2O[C@H](COP(=O)(O)OP(=O)(O)OP(=O)(O)O)[C@@H](O)[C@H]2O)c(=O)[nH]1` [GTP, guanosine triphosphate] the “cell survival, of the untreated control” value (SH-SY5Y cells; 0.2 μM rotenone, MTT) was 17% and the “cell survival in H2O2-induced death (in words)” value (SH-SY5Y cells) was “moderately increased cell survival”.

For `C=C(C)[C@H]1Cc2c(ccc3c2O[C@@H]2COc4cc(OC)c(OC)cc4[C@@H]2C3=O)O1` [rotenone, reference compound], the “cell death caused by rotenone alone” value (SH-SY5Y cells; 0.2 μM rotenone, MTT) was “caused all cells to die by 2 days” and the “sAPPα level, of the control, rotenone alone” value (APP α-processing [2]; young fibroblasts, 0.2 μM rotenone, two hours) was 52.3%.

With `N[C@@H](CCC(=O)O)C(=O)O` [glutamate, reference compound] the “sAPPα release relative to basal line” value (APP α-processing [1]) was 2.3 fold.

For `CC(=O)SCCNC(=O)CCNC(=O)[C@H](O)C(C)(C)COP(=O)(O)OP(=O)(O)OC[C@H]1O[C@@H](n2cnc3c(N)ncnc32)[C@H](O)[C@@H]1OP(=O)(O)O` [acetyl-coA, acetyl coenzyme A], the “cell survival, of the untreated control” value (SH-SY5Y cells; 0.2 μM rotenone, MTT) was 35%, the “cell survival, of the control” value (SH-SY5Y cells) was 21% and the “sAPPα level, of the control, co-treatment with H2O2” value (APP α-processing [2]; young fibroblasts) was 74.5%. For the same compound, the “sAPPα release relative to basal line” value (APP α-processing [1]) was 3.8 fold.
